Results as given in patent US10253039B2, “Inhibitors of bacterial DNA gyrase with efficacy against gram-negative bacteria” (priority 2014, dated 2019).
In brackets after ≈: the same amount, converted by molar mass. Read-outs that look alike come from different tables or passages of the source.

Experiments:
[1] = test system: E. coli BW25113 ΔtolC gyrR isolate GyrB Thr508Met; test: MIC against gyramide-resistant mutant; conditions: Escherichia coli, BW25113
Experimental: (§2) A microdilution method in 96-well plates was used and the MIC protocol established by the Clinical Laboratory Standards Institute was followed. From a growing subculture, a 1:10000 inoculum of each strain in Luria-Bertani media was prepared and aliquoted 100 μL in 4 columns of wells, except for the top row wells, which contained 200 μL of inoculum. […] The liquid in each of wells was mixed with a multi-channel pipet and 100 μL was transferred to the next well and mixed. The 2-fold dilution was continued down the 96-well plate until 100 μL was left, which was discarded. The plates were incubated at 37° C. with shaking for 16-18 hours. The MIC was determined as the lowest concentration that inhibited growth and had no turbidity by visual inspection.

[2] = test system: Edwardsiella tarda; test: MIC, microdilution in 96-well plates; assay type: cell-based; conditions: read-out: MIC
Summary of the method: (§1)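 First, a 1:10000 inoculum of each strain was made in Luria-Bertani medium from a growing subculture. Next, the compound was added and diluted 2-fold down the plate in three replicate columns, with DMSO in a fourth. Finally, plates were shaken at 37° C. for 16-18 hours and scored visually.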

[3] = test system: Acinetobacter baumannii; test: MIC, microdilution in 96-well plates; assay type: cell-based; conditions: read-out: MIC
Summary of the method: as §1

[4] = test system: Enterobacter aerogenes; test: MIC, microdilution in 96-well plates; assay type: cell-based; conditions: Klebsiella aerogenes, Enterobacter aerogenes, read-out: MIC
Summary of the method: as §1

[5] = test system: Pseudomonas aeruginosa; test: MIC, microdilution in 96-well plates; assay type: cell-based; conditions: read-out: MIC
Summary of the method: as §1

[6] = test system: E. coli BW25113; test: MIC, microdilution in 96-well plates; assay type: cell-based; conditions: Escherichia coli, BW25113, E. coli BW25113, read-out: MIC
Summary of the method: as §1

[7] = molecular target: E. coli DNA gyrase (Escherichia coli, UniProt P0AES4+P0AES6); test: DNA gyrase gel shift assay; conditions: IC50 against E. coli DNA gyrase, WT Gyrase
Sequence of E. coli DNA gyrase (P0AES4 whole entry, one chain of several): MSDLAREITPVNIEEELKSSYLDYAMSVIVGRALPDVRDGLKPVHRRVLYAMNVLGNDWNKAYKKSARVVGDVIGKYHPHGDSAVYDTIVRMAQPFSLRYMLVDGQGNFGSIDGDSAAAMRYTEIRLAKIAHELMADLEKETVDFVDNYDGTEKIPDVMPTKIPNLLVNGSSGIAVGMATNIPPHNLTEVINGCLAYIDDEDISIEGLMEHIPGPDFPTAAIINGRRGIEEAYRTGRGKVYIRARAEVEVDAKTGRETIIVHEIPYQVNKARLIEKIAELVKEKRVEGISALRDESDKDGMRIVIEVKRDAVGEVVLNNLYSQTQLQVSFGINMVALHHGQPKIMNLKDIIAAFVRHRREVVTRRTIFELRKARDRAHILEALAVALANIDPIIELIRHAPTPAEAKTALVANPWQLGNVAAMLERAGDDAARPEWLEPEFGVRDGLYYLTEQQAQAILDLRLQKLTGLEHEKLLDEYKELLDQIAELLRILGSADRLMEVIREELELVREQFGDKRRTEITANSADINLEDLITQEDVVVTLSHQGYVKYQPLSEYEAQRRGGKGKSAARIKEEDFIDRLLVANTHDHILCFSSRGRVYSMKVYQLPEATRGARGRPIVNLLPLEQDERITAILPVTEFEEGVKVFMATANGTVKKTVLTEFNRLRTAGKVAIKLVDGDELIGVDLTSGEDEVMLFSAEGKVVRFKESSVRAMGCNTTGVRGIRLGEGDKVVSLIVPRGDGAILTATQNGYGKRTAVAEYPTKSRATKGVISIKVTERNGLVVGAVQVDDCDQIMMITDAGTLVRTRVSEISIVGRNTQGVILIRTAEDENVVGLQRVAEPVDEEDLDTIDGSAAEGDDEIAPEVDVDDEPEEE

[8] = test system: Staphylococcus aureus; test: MIC, microdilution in 96-well plates
[9] = test system: E. coli BW25113 ΔtolC gyrR isolate GyrA Phe96Leu; test: MIC against gyramide-resistant mutant; conditions: Escherichia coli, BW25113
Experimental: as §2

[10] = test system: E. coli BW25113 ΔtolC cipR isolate GyrA Asp87Tyr; test: MIC against ciprofloxacin-resistant mutant; conditions: Escherichia coli, BW25113
Experimental: as §2

[11] = test system: Salmonella typhimurium; test: MIC, microdilution in 96-well plates; conditions: Salmonella enterica
[12] = Table 7, separate set of experiments

SMILES: N#Cc1cccc(S(=O)(=O)N[C@@H]2CCN(Cc3ccc(-c4ccccc4)cc3)C2)c1 [Gyramide C2, gyramide C2]
- MIC [1]: 25.6 µM (≈ 10.7 µg/mL)
- MIC [2, 12]: 16 µg/mL
- MIC ([2]; with PAβN (60 μM)): 20 µM
- MIC ([2]; without PAβN): > 640 µM
- MIC [3, 12]: > 16 µg/mL
- MIC ([3]; with PAβN (60 μM)): 40 µM
- MIC ([3]; without PAβN): > 640 µM
- MIC [4, 12]: > 16 µg/mL
- MIC ([4]; with PAβN (60 μM)): 10 µM
- MIC ([4]; without PAβN): > 640 µM
- MIC [5, 12]: > 16 µg/mL
- MIC ([5]; with PAβN (60 μM)): 20 µM
- MIC ([5]; without PAβN): > 640 µM
- MIC [6, 12]: 16 µg/mL
- MIC ([6]; without PAβN): 20 µM
- IC50 ([7]; Average of 3 trials): 122 ± 39.2 nM
- IC50 ([7]; Trial 1): 84.5 nM
- IC50 ([7]; Trial 2): 119 nM
- IC50 ([7]; Trial 3): 163 nM
- MIC ([8]; with PAβN (60 μM)): 40 µM (≈ 16.7 µg/mL)
- MIC ([8]; without PAβN): 160 µM (≈ 66.8 µg/mL)
- MIC [9]: 25.6 µM (≈ 10.7 µg/mL)
- MIC [10]: 0.8 µM (≈ 0.334 µg/mL)
- MIC ([11]; with PAβN (60 μM)): 2.5 µM (≈ 1.04 µg/mL)
- MIC ([11]; without PAβN): > 640 µM
